Experimental findings from patent US8884011B2, “Nucleotide analogues as precursor molecules for antivirals” (Centre National de la Recherche Scientifique-CNRS, priority 2006, dated 2014) are described below.

The subject of one data set is HIV-2 (ROD). Briefly: Anti-HIV test in CEM cell cultures, syncytium formation, HIV-2 (ROD). As to conditions: Human immunodeficiency virus 2, CCRF-CEM, read-out: EC50 (μM) HIV-2. It counts as cell-based.
In data set [1] the test system is HBV. Kind of data set: Anti-HBV test in infected HepAD38 cells (intracellular viral DNA by Q-PCR). The settings on record: Hepatitis B virus, 144 h; infected HepAD38 cells; 50% reduction of viral DNA; day 6 post-induction. The class given is cell-based. The procedure: These are hepatoma cells that have been stably transfected with a cDNA copy of the pregenomic RNA of wild-type virus. Withdrawal of tetracycline from the culture medium results in the initiation of viral replication. This offers the advantage, in contrast to the Hep G2.2.15 cell lines commonly used, that there is no, or very limited background viral DNA synthesis. Cells were cultured at 37° C. in a humidified 5% CO2/air atmosphere in seeding medium, DMEM/Ham's F12 (50/50) supplemented with 10% (v/v) heat-inactivated fetal calf serum, 100 IU/ml penicillin, 50 μg/ml streptomycin, 100 Ξg/ml kanamycin, 400 μg/ml G418, and 0.3 μg/ml tetracycline. […] After 2-3 days the cultures were induced for viral production by washing with prewarmed PBS and were fed with […] assay medium (seeding medium without tetracycline and G418) with or without the antiviral compounds. Medium was changed after 3 days. The antiviral effect was quantified by measuring levels of intracellular viral DNA at day 6 post-induction, by a real time quantitative PCR (Q-PCR) method. Total cellular DNA was extracted from the cells by means of a commercial kit. […] The reaction was analyzed using a SDS 7000. A plasmid containing the full length insert of the HBV genome was used to prepare the standard curve. The amount of viral DNA produced in treated cultures was expressed as a percentage of the mock treated samples. […] The cytostatic effect of the various compounds was assessed employing the parent hepatoma cell line HepG2. The effect of the compounds on exponentially growing HepG2 cells was evaluated by means of the MTS method. Briefly, cells were seeded at a density of 3000/well (96 well plate) and were allowed to proliferate for 3 days in the absence or presence of compounds after which the optical density was measured with a 96-well plate reader and cell density was determined.

Data set [2] in a line: Cytotoxicity by MTT test in cultures of uninfected CMSP. The settings on record: human. (Formazan colour is commonly taken as a measure of viable cells.)
Another data set deals with influenza A (H3N2). Briefly: Virus panel: influenza A (H3N2) in MDCK cells. The class given is cell-based. The settings on record: read-out: in vitro antiviral activity (EC50), none up to. From the text: (§1) influenza A (H1N1), influenza A (H3N2), influenza B, in MDCK cells;
The next data set has as its system Feline Herpes virus. Briefly: Virus panel: Feline Herpes virus in CRFK cells. It counts as cell-based. An excerpt: Feline Corona virus and Feline Herpes virus in CRFK cells.
The test system of another data set is Parainfluenza-3-virus. Kind of data set: Virus panel, CPE assay: Parainfluenza-3-virus in Vero cells. It counts as cell-based. As to conditions: read-out: in vitro antiviral activity (EC50), none up to.
The next data set has as its system Coxsackie B4. Kind of data set: Virus panel, CPE assay: Coxsackie B4 virus in Hela and Vero cells. The class given is cell-based. The settings on record: Enterovirus B, read-out: in vitro antiviral activity (EC50), none up to.
Data set [3] relates to vesicular stomatitis virus. Briefly: microbe, parasite or virus in culture. The class given is cell-based. As to conditions: HEL, read-out: in vitro antiviral activity (EC50), none up to.
Data set [4] relates to Herpes simplex virus-2 (G). Kind of data set: Virus panel, CPE assay: Herpes simplex virus-2 (G) in HEL cells. The settings on record: Human alphaherpesvirus 2. The class given is cell-based.
The next data set has as its system HIV-1 (IIIB). Briefly: Anti-HIV test in CEM cell cultures, syncytium formation, HIV-1 (IIIB). It counts as cell-based. As to conditions: Human immunodeficiency virus 1, IIIB, CCRF-CEM, read-out: EC50 (μM) HIV-1. The procedure: Briefly, CEM cells (4.5×10^5 cells per ml) were suspended in fresh culture medium and infected with HIV-1 at 100 CCID50 per ml of cell suspension. Then, 100 μl of the infected cell suspension were transferred to microplate wells, mixed with 100 μl of the appropriate dilutions of the test compounds, and further incubated at 37° C. After 4 to 5 days, giant cell formation was recorded microscopically in the CEM cell cultures.

In a further data set the test system is Sindbis virus. Kind of data set: Virus panel, CPE assay: Sindbis virus in Vero cells. The settings on record: read-out: in vitro antiviral activity (EC50), none up to. It counts as cell-based.
The nature of data set [5]: Stability in complete medium (RPMI 1640 containing 10% heat-inactivated fetal calf serum), HPLC. The class given is in vitro ADME. As to conditions: for half-life at 0.1 mM: bovine, serum, initial concentration 0.1 mM, read-out: t1/2 complete medium; for half-life at 0.1 mM / product intact: 37° C.; for product intact: complete medium, degradation into the phosphonate; for degradation: culture medium. The procedure: (§2) Media and preparation of cell extracts. Culture medium was composed by RPMI 1640 containing 10% (v/v) heat-inactivated fetal calf serum and stored at −80° C. CEM-SS cell extracts were prepared according to a published procedure (Puech, F. et al. Antiv. Res. 1993, 22, 155-174). Exponentially growing CEM-SS cells were recovered by centrifugation (500 g, 4° C., 4 min), washed twice with PBS and resuspended in 10 mM Tris-HCl, 140 mM KCl (pH 7.4), at the concentration of 30×10^6 cells/mL. Cells were lyzed by ultrasonic treatment and cellular debris were removed by centrifugation (10000 g, 4° C., 20 min). The supernatant containing soluble proteins (3 mg/mL) was stored at −80° C.
Kinetic data and decomposition pathways for compounds 6 and 11 were studied at 37° C. (a) in complete medium (RPMI 1640 containing 10% heat-inactivated fetal calf serum (b) in total cells extracts (CEM-SS). For each kinetic study, the compound solution was diluted with a freshly thawed aliquot of the considered medium to obtain an initial concentration of 0.1 mM. The mixture was incubated at 37° C. and for the required time, an aliquot (10% solution) was taken and immediately frozen at −80° C. for further HPLC analysis. The crude sample was injected into the precolumn and eluted with buffer A during 5 min. Then, the switching valve for connecting the precolumn to the column was activated, and a linear gradient from buffer A to buffer B, increasing buffer B from 0% at 0 min to 20% at 40 min is applied. The retention times were 6, 26 min; 11, 29.5 min, PMEA, 24.3 min and (R)-PMPA, 27.8 min.
All the compounds were analyzed under the same conditions. The amount of remaining parent compound at each time point was used to determine the half-life of the compound. The product of degradation from parent compound was determined by comparison with corresponding references.

Data set [6] concerns respiratory syncytial virus. Briefly: Virus panel, CPE assay: respiratory syncytial virus in Hela cells. The class given is cell-based. The settings on record: human respiratory syncytial virus, read-out: in vitro antiviral activity (EC50), none up to.
The subject of the next data set is Punta Toro virus. Kind of data set: Virus panel, CPE assay: Punta Toro virus in Vero cells. It counts as cell-based. As to conditions: read-out: in vitro antiviral activity (EC50), none up to.
Data set [7] in a line: Stability in total cell extracts (CEM-SS), HPLC. The class given is in vitro ADME. The settings on record: 37° C., 0.1 mM. The procedure: as §2
Kinetic data and decomposition pathways for compounds 6 and 11 were studied at 37° C. […]
All the compounds were analyzed under the same conditions. […] The product of degradation from parent compound was determined by comparison with corresponding references.

Data set [8] is described as follows: Cytotoxicity in CEM cell cultures (cell density). It counts as cell-based. As to conditions: human, 50% reduction in cell density, read-out: TC50 (the source's name).
Data set [9] is described as follows: Cytostatic effect on parent hepatoma cell line HepG2 (MTS method). The settings on record: human.
The next data set deals with Reovirus-1. Kind of data set: Virus panel, CPE assay: Reovirus-1 in Vero cells. As to conditions: Reovirus-1, Vero cells; read-out: in vitro antiviral activity (EC50), none up to. The class given is cell-based.
The next data set concerns influenza A (H1N1). Briefly: Virus panel: influenza A (H1N1) in MDCK cells. It counts as cell-based. As to conditions: read-out: in vitro antiviral activity (EC50), none up to.
Text: as §1

The test system of another data set is influenza B. Kind of data set: Virus panel: influenza B in MDCK cells. The settings on record: read-out: in vitro antiviral activity (EC50), none up to. The class given is cell-based.
Text: as §1

Another data set deals with HIV-1-LAI. Kind of data set: Anti-HIV test in CMSP cultures infected by HIV-1-LAI (RT activity in supernatants). The settings on record: Human immunodeficiency virus 1, 168 h, read-out: EC50 (μM) HIV-1 (LAI). It counts as cell-based.
For data set [10], the system named is HBV. Kind of data set: Anti-HBV test in infected Huh7 cells. It counts as cell-based. The settings on record: Hepatitis B virus, Huh-7, read-out: EC50 (μM) HBV.
The next data set concerns CMSP (uninfected cells). Briefly: Cytotoxicity by MTT test in cultures of uninfected CMSP. The settings on record: text statement to Table VII.

Each structure is given as a SMILES string.

The EC50 is the concentration needed to bring the measured effect to its halfway point. Consider `Nc1ncnc2c1ncn2CCOCP(=O)(O)S` (centres unmarked) [Compound 6, 9-[2-(thiophosphonomethoxy)ethyl]adenine], for which the 50% effective concentration (EC50) in the data set on HIV-2 (ROD) is 10.4 µM; in the data set with HBV [1], 9.6 µM; in the data set with influenza A (H3N2) it was more than 200 µM; in the data set on Feline Herpes virus, 38 µM; in the data set with Parainfluenza-3-virus, more than 200 µM; in the data set on Coxsackie B4, more than 200 µM. The EC50 in [3] is more than 200 µM; in data set [4], 58 µM; with HIV-1 (IIIB) it was 12.2 µM; in the data set with Sindbis virus, more than 200 µM; in [6], more than 200 µM; in the data set with Punta Toro virus, more than 200 µM. Moreover, the EC50 was more than 200 µM in the data set on Reovirus-1; more than 200 µM with influenza A (H1N1); more than 200 µM in the data set on influenza B; 7 µM in the data set on HIV-1-LAI; 4.5 µM in the data set with HBV [10]. In data set [2], this compound had a CC50 at 7 days of more than 42 µM. Further, in data set [5], the half-life at 0.1 mM was more than 24 h. For the same compound, the product intact entry in data set [5] is on record as “^a: product 80% intact (degradation into PMEA)”. This compound returned a degradation in [5] of 20%. Moreover, the t1/2 cell extracts result in [7] is reported as “stable^c”. The CC50 in data set [8] is more than 332 µM. Further, the CC50 at 3 days in data set [9] was more than 166 µM.

For the compound `C[C@H](Cn1cnc2c(N)ncnc21)OCP(=O)(O)S` (stereo partly drawn) [Compound 11, (R)-9-[2-(thiophosphonomethoxy)propyl]adenine], the EC50 in the data set on HIV-2 (ROD) is 8.6 µM; in the data set on HBV [1], 2.26 µM; in the data set on influenza A (H3N2) it was more than 200 µM; in the data set with Parainfluenza-3-virus, more than 200 µM; in the data set on Coxsackie B4, more than 200 µM; in data set [3], more than 200 µM. The EC50 with HIV-1 (IIIB) is 11.1 µM; in the data set on Sindbis virus, more than 200 µM; in data set [6], more than 200 µM; in the data set on Punta Toro virus, more than 200 µM; in the data set on Reovirus-1, more than 200 µM; with influenza A (H1N1) it was more than 200 µM. Also, the figures for the EC50 in the data set on influenza B, with HIV-1-LAI and with HBV [10] were more than 200 µM, 1.6 µM and 5 µM, respectively. In [2], this compound came in with a CC50 at 7 days of more than 100 µM. In addition, in the data set with CMSP (uninfected cells), the “not cytotoxic (highest concentration tested)” value was more than 200 µM. In [5], the half-life at 0.1 mM is more than 24 h. Also, in data set [5], the product intact entry is “^b: product 77% intact (degradation into PMPA)”. In [5], this compound gave a degradation of 20%. For the same compound, the t1/2 cell extracts result in data set [7] is “stable^c”. The CC50 in [8] was more than 165 µM. In data set [9], the CC50 at 3 days is more than 174 µM.
